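Results reflect a 48-hour exposure of cells in 96-well plates to compound at five concentrations. The concentration for 50% growth inhibition is given as GI50.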 Activity calls are given as the source filed them. No stated cut-off is given here; in the data, active = GI50 up to about 1.1 µM and inactive = higher.
Columns and labels:
Test in all cases: inhibition of tumour cell growth, NCI panel, 48 h
CAKI-1 = test system: CAKI-1
EKVX = test system: EKVX
HCC 2998 = test system: HCC 2998
HCT-116 = test system: HCT-116
HL-60 = test system: HL-60
HOP-62 = test system: HOP-62
HOP-92 = test system: HOP-92
IGROV-1 = test system: IGROV-1
KM12 = test system: KM12
OVCAR-8 = test system: OVCAR-8
SF-295 = test system: SF-295
SK-MEL-28 = test system: SK-MEL-28
SK-MEL-5 = test system: SK-MEL-5
SK-OV-3 = test system: SK-OV-3
SNB-19 = test system: SNB-19
SNB-75 = test system: SNB-75
UO-31 = test system: UO-31
SK-MEL-2 = test system: SK-MEL-2

Measured: GI50

CN(C)C(=S)/N=c1\sn(C)/c(=N\C(=S)N(C)C)n1C
inactive: CAKI-1 > 100 µM | EKVX > 100 µM | HCC 2998 > 100 µM | HCT-116 > 100 µM | HL-60 25.1 µM | HOP-62 > 100 µM | HOP-92 > 100 µM | IGROV-1 > 100 µM | KM12 86.1 µM | OVCAR-8 > 100 µM | SF-295 > 100 µM | SK-MEL-28 > 100 µM | SK-MEL-5 29.1 µM | SK-OV-3 > 100 µM | SNB-19 > 100 µM | SNB-75 > 100 µM | UO-31 > 100 µM

CN(C(=O)C12C3(C(=O)C(C)(C)C)C4C5(C#N)C3C1(C(=O)C(C)(C)C)C5C42C(=O)C(C)(C)C)C(C)(C)C (stereo unspecified)
inactive: CAKI-1 33.8 µM | EKVX 43.3 µM | HCC 2998 > 50 µM | HCT-116 24.2 µM | HL-60 16.1 µM | HOP-62 > 50 µM | HOP-92 30.8 µM | IGROV-1 > 50 µM | KM12 > 50 µM | OVCAR-8 > 50 µM | SF-295 > 50 µM | SK-MEL-28 > 50 µM | SK-MEL-5 > 50 µM | SK-OV-3 > 50 µM | SNB-19 > 50 µM | SNB-75 8.95 µM | UO-31 29.6 µM

COc1ccccc1NC(=O)C1=C(C)NC(C)=C(C(=O)Nc2ccccc2OC)C1c1ccc(C(C)C)cc1
inactive: CAKI-1 > 100 µM | EKVX 33 µM | HCC 2998 63.7 µM | HCT-116 13.8 µM | HOP-62 > 100 µM | HOP-92 82.4 µM | IGROV-1 > 100 µM | KM12 55.6 µM | OVCAR-8 > 100 µM | SF-295 > 100 µM | SK-MEL-28 80.5 µM | SK-MEL-2 > 100 µM | SK-MEL-5 38.9 µM | SK-OV-3 > 100 µM | SNB-19 > 100 µM | SNB-75 27 µM | UO-31 29 µM

CS(=O)(=O)N(N(CCCl)S(=O)(=O)c1ccccc1)S(C)(=O)=O
inactive: CAKI-1 > 100 µM | EKVX > 100 µM | HCC 2998 > 100 µM | HCT-116 > 100 µM | HL-60 > 100 µM | HOP-62 > 100 µM | HOP-92 > 100 µM | KM12 > 100 µM | OVCAR-8 > 100 µM | SF-295 88.9 µM | SK-MEL-28 > 100 µM | SK-MEL-2 > 100 µM | SK-MEL-5 52.7 µM | SNB-19 67.9 µM | SNB-75 50.8 µM | UO-31 76.7 µM

O=C1C(c2ccccc2)=C(c2ccccc2)C(c2ccc(CCCCCCc3ccc(C4=C(c5ccccc5)C(=O)C(c5ccccc5)=C4c4ccccc4)cc3)cc2)=C1c1ccccc1
inactive: EKVX > 100 µM | HCC 2998 > 100 µM | HCT-116 > 100 µM | HL-60 > 100 µM | HOP-62 > 100 µM | HOP-92 > 100 µM | IGROV-1 > 100 µM | KM12 > 100 µM | OVCAR-8 > 100 µM | SF-295 > 100 µM | SK-MEL-28 > 100 µM | SK-MEL-2 > 100 µM | SK-MEL-5 > 100 µM | SNB-19 65 µM | UO-31 > 100 µM

CCN(c1ccc(Br)cc1)c1c(Br)c(=O)nc2ccccn12
inactive: CAKI-1 93.1 µM | EKVX 73.3 µM | HCT-116 > 100 µM | HOP-62 > 100 µM | HOP-92 57.3 µM | IGROV-1 > 100 µM | KM12 > 100 µM | OVCAR-8 > 100 µM | SK-MEL-28 > 100 µM | SK-MEL-2 > 100 µM | SK-MEL-5 59.8 µM | SK-OV-3 51.5 µM | SNB-19 > 100 µM | SNB-75 > 100 µM | UO-31 35.7 µM

CC(=O)OCCOCNC(=S)N/N=C/c1ccc([N+](=O)[O-])o1
inactive: EKVX > 100 µM | HCC 2998 40.7 µM | HCT-116 40 µM | HL-60 11.6 µM | HOP-62 > 100 µM | IGROV-1 > 100 µM | KM12 57 µM | OVCAR-8 77.3 µM | SF-295 40.6 µM | SK-MEL-28 98.4 µM | SK-MEL-2 44.1 µM | SK-MEL-5 28.7 µM | SK-OV-3 > 100 µM | SNB-19 > 100 µM | SNB-75 > 100 µM | UO-31 > 100 µM

O=C1c2cc3c(cc2[C@@H]2NC4CCCC14O2)OCO3 (stereo partly specified)
inactive: CAKI-1 > 100 µM | EKVX > 100 µM | HCT-116 > 100 µM | HL-60 > 100 µM | HOP-62 > 100 µM | HOP-92 > 100 µM | IGROV-1 > 100 µM | KM12 > 100 µM | OVCAR-8 > 100 µM | SF-295 > 100 µM | SK-MEL-28 > 100 µM | SK-MEL-2 > 100 µM | SK-MEL-5 > 100 µM | SK-OV-3 > 100 µM | SNB-19 > 100 µM | SNB-75 > 100 µM | UO-31 > 100 µM

Cc1nc(-n2nc(-c3ccccc3)cc2-c2ccccc2)sc1C(=O)CC(=O)C(=O)Nc1ccc(Cl)c(Cl)c1
inactive: CAKI-1 83 µM | EKVX 15.1 µM | HCC 2998 > 100 µM | HCT-116 64.6 µM | HL-60 > 100 µM | HOP-62 > 100 µM | IGROV-1 > 100 µM | KM12 35.9 µM | OVCAR-8 > 100 µM | SF-295 79.3 µM | SK-MEL-2 > 100 µM | SK-OV-3 51.3 µM | SNB-19 79.4 µM | SNB-75 55 µM | UO-31 77.1 µM

CC[C@@H]1NC(C(=O)OC)Cc2c1[nH]c1ccccc21 (stereo partly specified)
inactive: CAKI-1 > 100 µM | EKVX > 100 µM | HCC 2998 > 100 µM | HCT-116 > 100 µM | HL-60 > 100 µM | HOP-92 > 100 µM | IGROV-1 > 100 µM | KM12 > 100 µM | OVCAR-8 > 100 µM | SF-295 > 100 µM | SK-MEL-28 > 100 µM | SK-MEL-2 > 100 µM | SK-MEL-5 > 100 µM | SK-OV-3 > 100 µM | SNB-19 > 100 µM | SNB-75 > 100 µM | UO-31 > 100 µM

COC(=O)c1ccc(OCc2ccc3nc(OC)c(OC)nc3c2)cc1
inactive: CAKI-1 > 100 µM | EKVX > 100 µM | HCC 2998 > 100 µM | HCT-116 89.9 µM | HL-60 > 100 µM | HOP-62 68.4 µM | KM12 > 100 µM | OVCAR-8 > 100 µM | SF-295 82.6 µM | SK-MEL-28 > 100 µM | SK-MEL-2 > 100 µM | SK-MEL-5 > 100 µM | SNB-19 > 100 µM | SNB-75 > 100 µM | UO-31 > 100 µM

Cc1[nH]c2ccccc2c1C1Cc2ccccc2N1C(=O)C#Cc1ccc([N+](=O)[O-])cc1 (stereo unspecified)
inactive: EKVX > 100 µM | HCC 2998 > 100 µM | HCT-116 > 100 µM | HL-60 > 100 µM | HOP-62 > 100 µM | IGROV-1 > 100 µM | KM12 > 100 µM | OVCAR-8 > 100 µM | SF-295 > 100 µM | SK-MEL-28 > 100 µM | SK-OV-3 > 100 µM | SNB-19 > 100 µM | SNB-75 > 100 µM | UO-31 51.9 µM

Reference: ChEMBL document CHEMBL1201862, “PubChem BioAssay data set” (2004)
